From PMC12023779, “Characterization, thermostable mechanism, and molecular docking of a novel glucose-tolerant β-glucosidase/β-galactosidase from the GH1 family isolated from Rehai hot spring” (Frontiers in Microbiology, 2025)

Columns and labels:
Y50Bg4 [1] = system: T1, Y50Bg4; test: glucose oxidase-peroxidase assay, Michaelis-Menten non-linear fit; format: biochemical, uncultured bacterium; conditions: sodium citrate buffer pH 6.0, 60°C; 0-20 mg/mL substrate
T1 construct: expressed in E. coli DH5alpha, Ni-NTA purified; primers encode MKIDGGLKC... at N-end and ...EIIKKYKE at C-end
Description: glucose oxidase-peroxidase assay, Michaelis-Menten non-linear fit on Y50Bg4

Y50Bg4 [2] = system: T1, Y50Bg4; test: p-nitrophenol release at […] nm, Michaelis-Menten non-linear fit; format: biochemical, uncultured bacterium; conditions: sodium citrate buffer pH 6.0, 60°C; 0-2 mM substrate

Structure (SMILES) | Km (Y50Bg4 [1]) [mg/mL] | Km (Y50Bg4 [2]) [µM]
OC[C@H]1O[C@@H](O[C@H]2[C@H](O)[C@@H](O)C(O)O[C@@H]2CO)[C@H](O)[C@@H](O)[C@@H]1O (some centres unmarked) [cellobiose] | 4.69 | –
O=[N+]([O-])c1ccc(O[C@@H]2O[C@H](CO)[C@@H](O)[C@H](O)[C@H]2O)cc1 [p-nitrophenyl-β-D-glucopyranoside] | – | 530
